Source: publication PMC6943437, “Coupling the Antimalarial Cell Penetrating Peptide TP10 to Classical Antimalarial Drugs Primaquine and Chloroquine Produces Strongly Hemolytic Conjugates” (Molecules, 2019)
Values joined by “and” are separate entries in the source; they are usually repeats but may differ in a detail not shown here. Equal values may be shown once. Where no end group is shown, it is not given here.

Test system: P. falciparum W2
Assay: not given
Type: cell-based
Conditions: P. falciparum W2 (CQ-resistant), 48 h, n = 3
Description: All conjugates and their respective parent CPP (Table 1), were screened in vitro for their antiplasmodial activity, using the CQ-resistant P. falciparum W2 strain. The primaquine analogue to 5a, i.e., conjugate 3 where the CPP is TP10, PQ-C4-TP10 (3a), was also included in the study for comparison.
Synchronized ring-stage P. falciparum parasites (W2 strain) were incubated with test compounds for 48 h in Roswell Park Memorial Institute (RPMI) 1640 medium containing 10% human serum or 0.5% Albumax serum substitute. Parasites were then fixed with 1% formaldehyde in phosphate-buffered saline (PBS), pH 7.4, for […] at RT and labeled with YOYO-1 (1 nM; molecular probes) in 0.1% Triton X-100 in PBS. Parasitemias were determined by flow cytometry, from dot plots (forward scatter versus fluorescence). For 50% inhibitory concentration (IC50) determinations, dose-response studies were performed, with the values normalized to percent control activity, and IC50s were calculated using GraphPad Prism, with data fitted by nonlinear regression.

Molecule | IC50
N=C(N)NCCC[C@H](NC(=O)[C@H](CCCNC(=N)N)NC(=O)[C@H](CCCNC(=N)N)NC(=O)[C@H](CCCNC(=N)N)NC(=O)[C@H](CCCNC(=N)N)NC(=O)[C@H](CCCNC(=N)N)NC(=O)[C@H](CCCNC(=N)N)NC(=O)[C@H](CCCNC(=N)N)NC(=O)[C@@H](N)CCCNC(=N)N)C(N)=O [R9] | > 10 µM
N=C(N)NCCC[C@H](NC(=O)CN)C(=O)N[C@@H](CCCCN)C(=O)N[C@@H](CCCCN)C(=O)N[C@@H](CCCNC(=N)N)C(=O)N[C@@H](CCCNC(=N)N)C(=O)N[C@@H](CCC(N)=O)C(=O)N[C@@H](CCCNC(=N)N)C(=O)N[C@@H](CCCNC(=N)N)C(=O)N[C@@H](CCCNC(=N)N)C(=O)N1CCC[C@H]1C(=O)N1CCC[C@H]1C(=O)N[C@@H](CCC(N)=O)C(N)=O [TAT] | > 10 µM
CC[C@H](C)[C@H](NC(=O)[C@H](CCCCN)NC(=O)[C@H](CCCCN)NC(=O)[C@H](C)NC(=O)[C@H](CC(C)C)NC(=O)[C@H](C)NC(=O)[C@H](C)NC(=O)[C@H](CC(C)C)NC(=O)[C@H](C)NC(=O)[C@H](CCCCN)NC(=O)[C@H](CC(C)C)NC(=O)[C@H](CC(N)=O)NC(=O)[C@@H](NC(=O)[C@H](CCCCN)NC(=O)CNC(=O)[C@H](CC(C)C)NC(=O)[C@H](CC(C)C)NC(=O)[C@H](Cc1ccc(O)cc1)NC(=O)CNC(=O)[C@H](C)NC(=O)[C@H](CO)NC(=O)[C@H](CC(N)=O)NC(=O)[C@H](CC(C)C)NC(=O)[C@@H](NC(=O)[C@H](Cc1c[nH]c2ccccc12)NC(=O)CN)[C@@H](C)O)[C@@H](C)CC)C(=O)N[C@@H](CC(C)C)C(N)=O [Transportan] | 3.05 µM and 3.1 µM
H-FFLIPKGGRKKRRQRRRPPQ-NH2 [PasTAT] | > 10 µM
H-RQKRLIRQKRLIRQKRLI-NH2 [DPT-sh2] | > 10 µM
H-VKKKKIKREIKI-NH2 [DPT-sh1] | > 10 µM
VRLIVAVRIWRR-NH2 [IDR-1018] | > 10 µM

Test system: not listed separately
Assay: In vitro hemolytic activity on healthy erythrocytes
Type: cell-based
Conditions: healthy erythrocytes (hRBC); 10 µM, 1 h, hRBC only; dash with footnote c = hemolysis not detected; read-out: % hemolysis at 10 µM ± SD (n = 3), hRBC
Description: (§1) For positive and negative controls, 1% Triton X-100 and PBS were added, respectively. After this period, the plates were centrifuged and supernatants transferred to another plate. Supernatant absorbance at 450 nm was assessed in a multi-mode microplate reader (Triad, Dynex Technologies, Chantilly, VA, USA) and values were treated using the following equation (1):(1) % Hemolysis=Abs−Abs(negative control)/Abs(positive control)−Abs(negative control)

Molecule | hemolysis at 1 h, 10 µM
CC[C@H](C)[C@H](NC(=O)[C@H](CCCCN)NC(=O)[C@H](CCCCN)NC(=O)[C@H](C)NC(=O)[C@H](CC(C)C)NC(=O)[C@H](C)NC(=O)[C@H](C)NC(=O)[C@H](CC(C)C)NC(=O)[C@H](C)NC(=O)[C@H](CCCCN)NC(=O)[C@H](CC(C)C)NC(=O)[C@H](CC(N)=O)NC(=O)[C@@H](NC(=O)[C@H](CCCCN)NC(=O)CNC(=O)[C@H](CC(C)C)NC(=O)[C@H](CC(C)C)NC(=O)[C@H](Cc1ccc(O)cc1)NC(=O)CNC(=O)[C@H](C)NC(=O)CCC(=O)NCCCC(C)Nc1cc(OC)cc2cccnc12)[C@@H](C)CC)C(=O)N[C@@H](CC(C)C)C(N)=O (some centres unmarked) [3a] | 89 ± 8%
CC[C@H](C)[C@H](NC(=O)[C@H](CCCCN)NC(=O)[C@H](CCCCN)NC(=O)[C@H](C)NC(=O)[C@H](CC(C)C)NC(=O)[C@H](C)NC(=O)[C@H](C)NC(=O)[C@H](CC(C)C)NC(=O)[C@H](C)NC(=O)[C@H](CCCCN)NC(=O)[C@H](CC(C)C)NC(=O)[C@H](CC(N)=O)NC(=O)[C@@H](NC(=O)[C@H](CCCCN)NC(=O)CNC(=O)[C@H](CC(C)C)NC(=O)[C@H](CC(C)C)NC(=O)[C@H](Cc1ccc(O)cc1)NC(=O)CNC(=O)[C@H](C)N)[C@@H](C)CC)C(=O)N[C@@H](CC(C)C)C(=O)N[C@@H](CSSC[C@H](N)C(=O)NCCCC(C)Nc1cc(OC)cc2cccnc12)C(N)=O (some centres unmarked) [14′] | 99.7 ± 0.4%

Test system: not listed separately
Assay: In vitro hemolytic activity on Plasmodium-infected erythrocyte cultures
Type: cell-based
Conditions: cultures with 3% PiRBC, dash with footnote c = hemolysis not detected, read-out: % hemolysis at 10 µM ± SD (n = 3), PiRBC
Description: as §1

Molecule | hemolysis at 1 h, 10 µM
CC[C@H](C)[C@H](NC(=O)[C@H](CCCCN)NC(=O)[C@H](CCCCN)NC(=O)[C@H](C)NC(=O)[C@H](CC(C)C)NC(=O)[C@H](C)NC(=O)[C@H](C)NC(=O)[C@H](CC(C)C)NC(=O)[C@H](C)NC(=O)[C@H](CCCCN)NC(=O)[C@H](CC(C)C)NC(=O)[C@H](CC(N)=O)NC(=O)[C@@H](NC(=O)[C@H](CCCCN)NC(=O)CNC(=O)[C@H](CC(C)C)NC(=O)[C@H](CC(C)C)NC(=O)[C@H](Cc1ccc(O)cc1)NC(=O)CNC(=O)[C@H](C)NC(=O)CCC(=O)NCCCC(C)Nc1cc(OC)cc2cccnc12)[C@@H](C)CC)C(=O)N[C@@H](CC(C)C)C(N)=O (some centres unmarked) [3a] | 49 ± 7%
CC[C@H](C)[C@H](NC(=O)[C@H](CCCCN)NC(=O)[C@H](CCCCN)NC(=O)[C@H](C)NC(=O)[C@H](CC(C)C)NC(=O)[C@H](C)NC(=O)[C@H](C)NC(=O)[C@H](CC(C)C)NC(=O)[C@H](C)NC(=O)[C@H](CCCCN)NC(=O)[C@H](CC(C)C)NC(=O)[C@H](CC(N)=O)NC(=O)[C@@H](NC(=O)[C@H](CCCCN)NC(=O)CNC(=O)[C@H](CC(C)C)NC(=O)[C@H](CC(C)C)NC(=O)[C@H](Cc1ccc(O)cc1)NC(=O)CNC(=O)[C@H](C)N)[C@@H](C)CC)C(=O)N[C@@H](CC(C)C)C(=O)N[C@@H](CSSC[C@H](N)C(=O)NCCCC(C)Nc1cc(OC)cc2cccnc12)C(N)=O (some centres unmarked) [14′] | 72 ± 9%
